One block for each compound: values may come before it. Activity calls are given as the source filed them.
Assays:
fMet-Leu-Phe receptor = fMet-Leu-Phe receptor (Homo sapiens, UniProt P21462); assay: FPR ligands, dose response (AID 519); type: functional
[1] = target: Voltage-gated inwardly rectifying potassium channel KCNH2 (Homo sapiens, UniProt Q12809); conditions: Potency;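 also: confirmatory quantitative high-throughput screen measuring inhibition of hERG channel activity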
Caspase-7 = Caspase-7 (Homo sapiens, UniProt P55210); assay: human caspase-7 inhibitors, dose response, selectivity assay for caspase-6 inhibitor project, biochemical, DEVD-R110 fluorescence, cherry-pick (AID 743295)
Chain of Caspase-7 (P55210 24-198 limits assumed): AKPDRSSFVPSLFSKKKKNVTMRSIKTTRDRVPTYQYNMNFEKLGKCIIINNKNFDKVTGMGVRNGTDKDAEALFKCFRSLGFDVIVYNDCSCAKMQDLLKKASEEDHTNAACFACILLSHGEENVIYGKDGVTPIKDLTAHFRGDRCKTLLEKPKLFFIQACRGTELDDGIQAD
Chain of Caspase-7 (P55210 207-303 limits assumed): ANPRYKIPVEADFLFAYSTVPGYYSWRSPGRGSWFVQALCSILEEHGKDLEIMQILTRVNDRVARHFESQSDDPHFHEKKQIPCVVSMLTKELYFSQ

[2] = target: T1, Histone-lysine N-methyltransferase NSD2 (Homo sapiens, UniProt O96028); type: biochemical
T1 sequence (O96028 whole entry): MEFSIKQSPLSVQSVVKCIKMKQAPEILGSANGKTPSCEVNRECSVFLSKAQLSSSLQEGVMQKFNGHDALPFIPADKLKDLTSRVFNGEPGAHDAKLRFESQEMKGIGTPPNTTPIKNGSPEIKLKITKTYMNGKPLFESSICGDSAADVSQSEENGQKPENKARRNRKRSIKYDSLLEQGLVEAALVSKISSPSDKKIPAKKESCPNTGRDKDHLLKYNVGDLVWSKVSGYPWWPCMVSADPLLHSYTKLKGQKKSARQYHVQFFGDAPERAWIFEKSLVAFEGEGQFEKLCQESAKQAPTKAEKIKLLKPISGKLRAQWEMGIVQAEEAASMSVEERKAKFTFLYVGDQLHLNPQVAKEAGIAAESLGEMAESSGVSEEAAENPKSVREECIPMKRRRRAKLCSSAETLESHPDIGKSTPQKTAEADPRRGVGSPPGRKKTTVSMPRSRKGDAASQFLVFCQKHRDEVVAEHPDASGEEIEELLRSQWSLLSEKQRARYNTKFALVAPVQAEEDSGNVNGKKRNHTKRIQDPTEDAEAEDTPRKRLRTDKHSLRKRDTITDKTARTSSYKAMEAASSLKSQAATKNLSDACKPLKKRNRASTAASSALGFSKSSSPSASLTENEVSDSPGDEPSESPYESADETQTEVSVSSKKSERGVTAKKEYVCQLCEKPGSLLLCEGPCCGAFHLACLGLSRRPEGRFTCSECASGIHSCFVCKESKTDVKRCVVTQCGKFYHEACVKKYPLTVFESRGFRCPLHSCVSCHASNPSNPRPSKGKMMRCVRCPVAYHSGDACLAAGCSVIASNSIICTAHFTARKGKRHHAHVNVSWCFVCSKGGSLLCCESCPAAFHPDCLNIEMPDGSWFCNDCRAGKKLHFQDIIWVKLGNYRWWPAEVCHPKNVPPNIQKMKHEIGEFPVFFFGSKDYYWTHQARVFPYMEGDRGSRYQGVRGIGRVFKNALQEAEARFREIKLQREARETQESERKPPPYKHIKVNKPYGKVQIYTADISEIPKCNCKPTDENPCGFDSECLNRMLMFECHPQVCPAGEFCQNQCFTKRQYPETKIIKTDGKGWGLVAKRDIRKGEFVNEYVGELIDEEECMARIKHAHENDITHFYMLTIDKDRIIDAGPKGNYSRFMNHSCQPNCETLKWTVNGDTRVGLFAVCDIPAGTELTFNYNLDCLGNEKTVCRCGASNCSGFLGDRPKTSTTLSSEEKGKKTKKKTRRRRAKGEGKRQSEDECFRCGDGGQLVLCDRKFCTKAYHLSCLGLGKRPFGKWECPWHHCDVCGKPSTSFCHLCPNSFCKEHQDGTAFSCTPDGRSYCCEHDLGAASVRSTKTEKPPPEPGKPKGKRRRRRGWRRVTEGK

Genome polyprotein = Genome polyprotein (dengue virus type 2, UniProt P29990); assay: Dengue-2 NS5 methyltransferase inhibitors, primary screen, biochemical, confirmation dose response (AID 588689); type: functional
Chain of Genome polyprotein (P29990 2492-3391 limits assumed): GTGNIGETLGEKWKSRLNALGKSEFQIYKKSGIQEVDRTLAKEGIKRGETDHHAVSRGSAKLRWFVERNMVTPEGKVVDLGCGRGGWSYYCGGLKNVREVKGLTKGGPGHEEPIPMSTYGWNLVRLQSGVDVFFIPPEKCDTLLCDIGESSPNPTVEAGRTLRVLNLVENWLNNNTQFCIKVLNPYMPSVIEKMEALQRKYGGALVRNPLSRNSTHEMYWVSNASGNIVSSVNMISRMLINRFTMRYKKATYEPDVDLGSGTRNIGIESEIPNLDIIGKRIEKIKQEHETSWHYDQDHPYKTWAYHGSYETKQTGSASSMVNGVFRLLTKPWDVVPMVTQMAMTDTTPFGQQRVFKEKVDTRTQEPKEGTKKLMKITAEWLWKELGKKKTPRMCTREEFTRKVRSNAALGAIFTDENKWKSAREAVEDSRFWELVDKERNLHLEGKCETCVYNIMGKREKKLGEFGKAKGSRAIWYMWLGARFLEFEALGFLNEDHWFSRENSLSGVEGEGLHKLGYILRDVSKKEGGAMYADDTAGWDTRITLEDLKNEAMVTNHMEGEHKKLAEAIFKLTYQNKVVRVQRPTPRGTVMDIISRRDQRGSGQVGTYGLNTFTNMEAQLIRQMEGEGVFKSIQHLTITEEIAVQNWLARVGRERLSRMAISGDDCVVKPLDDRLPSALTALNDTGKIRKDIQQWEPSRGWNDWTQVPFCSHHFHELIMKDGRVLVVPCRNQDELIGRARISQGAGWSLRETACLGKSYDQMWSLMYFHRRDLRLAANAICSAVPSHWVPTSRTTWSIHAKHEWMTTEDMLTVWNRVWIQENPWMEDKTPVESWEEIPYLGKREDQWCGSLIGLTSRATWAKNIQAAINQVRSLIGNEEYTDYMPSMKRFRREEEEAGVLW

Caspase-6 = target: T2, Caspase-6 (Homo sapiens, UniProt P55212); assay: human caspase-6 inhibitors, dose response, biochemical, VEID-R110 fluorescence, cherry-pick (AID 720632)
T2 sequence (P55212 whole entry): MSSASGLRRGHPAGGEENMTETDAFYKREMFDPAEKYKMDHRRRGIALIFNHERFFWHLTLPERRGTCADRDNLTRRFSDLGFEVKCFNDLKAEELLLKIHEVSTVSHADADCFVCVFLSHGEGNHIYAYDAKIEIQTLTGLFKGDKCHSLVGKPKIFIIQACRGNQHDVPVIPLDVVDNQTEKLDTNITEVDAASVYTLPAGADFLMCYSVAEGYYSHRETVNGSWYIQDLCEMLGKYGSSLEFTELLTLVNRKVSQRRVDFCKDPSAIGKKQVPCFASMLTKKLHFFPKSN

[3] = target: Glucose-6-phosphate 1-dehydrogenase (Homo sapiens, UniProt P11413); assay: human G6PD enzyme inhibitors, dose response, selectivity assay for P. falciparum G6PD inhibitor project, biochemical, fluorescence (AID 504792); type: functional
Chain of Glucose-6-phosphate 1-dehydrogenase (P11413 whole entry): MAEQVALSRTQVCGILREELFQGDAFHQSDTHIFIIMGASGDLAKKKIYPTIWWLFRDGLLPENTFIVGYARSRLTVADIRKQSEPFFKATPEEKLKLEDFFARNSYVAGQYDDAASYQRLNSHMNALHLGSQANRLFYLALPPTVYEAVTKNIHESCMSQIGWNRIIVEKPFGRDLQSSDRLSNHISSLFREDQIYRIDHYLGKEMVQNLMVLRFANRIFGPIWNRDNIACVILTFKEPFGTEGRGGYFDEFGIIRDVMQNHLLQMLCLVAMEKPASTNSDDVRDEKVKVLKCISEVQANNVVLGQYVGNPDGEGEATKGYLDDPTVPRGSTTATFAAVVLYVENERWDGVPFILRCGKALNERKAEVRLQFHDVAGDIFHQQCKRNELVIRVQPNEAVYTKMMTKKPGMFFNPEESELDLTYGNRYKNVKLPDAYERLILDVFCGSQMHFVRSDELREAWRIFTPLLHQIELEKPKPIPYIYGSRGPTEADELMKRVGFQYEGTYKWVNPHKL

Protein skinhead-1 = target: T3, Protein skinhead-1 (Caenorhabditis elegans, UniProt P34707); type: functional
T3 sequence (P34707 whole entry): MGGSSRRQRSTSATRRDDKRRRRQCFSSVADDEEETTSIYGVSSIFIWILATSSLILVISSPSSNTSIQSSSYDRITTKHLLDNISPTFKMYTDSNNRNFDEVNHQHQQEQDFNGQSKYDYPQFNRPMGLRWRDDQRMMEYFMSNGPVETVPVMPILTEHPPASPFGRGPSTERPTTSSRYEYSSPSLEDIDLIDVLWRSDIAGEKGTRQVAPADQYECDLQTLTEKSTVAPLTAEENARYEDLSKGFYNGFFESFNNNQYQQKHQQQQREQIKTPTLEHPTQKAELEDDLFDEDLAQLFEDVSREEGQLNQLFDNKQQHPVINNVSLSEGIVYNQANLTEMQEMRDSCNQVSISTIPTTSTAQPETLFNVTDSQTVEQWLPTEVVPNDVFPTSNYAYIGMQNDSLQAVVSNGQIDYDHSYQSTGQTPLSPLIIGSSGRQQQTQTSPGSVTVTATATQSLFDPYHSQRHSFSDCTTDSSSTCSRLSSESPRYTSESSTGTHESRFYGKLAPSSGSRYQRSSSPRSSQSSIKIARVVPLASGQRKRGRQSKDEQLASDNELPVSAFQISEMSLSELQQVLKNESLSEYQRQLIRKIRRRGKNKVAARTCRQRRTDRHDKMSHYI

[4] = target: T4, Sentrin-specific protease 6 (Homo sapiens, UniProt Q9GZR1); type: functional;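 also: Luminescence-based dose-response confirmatory assay of SENP6 inhibition, following up an ultra-high-throughput screen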
T4 sequence (Q9GZR1 whole entry): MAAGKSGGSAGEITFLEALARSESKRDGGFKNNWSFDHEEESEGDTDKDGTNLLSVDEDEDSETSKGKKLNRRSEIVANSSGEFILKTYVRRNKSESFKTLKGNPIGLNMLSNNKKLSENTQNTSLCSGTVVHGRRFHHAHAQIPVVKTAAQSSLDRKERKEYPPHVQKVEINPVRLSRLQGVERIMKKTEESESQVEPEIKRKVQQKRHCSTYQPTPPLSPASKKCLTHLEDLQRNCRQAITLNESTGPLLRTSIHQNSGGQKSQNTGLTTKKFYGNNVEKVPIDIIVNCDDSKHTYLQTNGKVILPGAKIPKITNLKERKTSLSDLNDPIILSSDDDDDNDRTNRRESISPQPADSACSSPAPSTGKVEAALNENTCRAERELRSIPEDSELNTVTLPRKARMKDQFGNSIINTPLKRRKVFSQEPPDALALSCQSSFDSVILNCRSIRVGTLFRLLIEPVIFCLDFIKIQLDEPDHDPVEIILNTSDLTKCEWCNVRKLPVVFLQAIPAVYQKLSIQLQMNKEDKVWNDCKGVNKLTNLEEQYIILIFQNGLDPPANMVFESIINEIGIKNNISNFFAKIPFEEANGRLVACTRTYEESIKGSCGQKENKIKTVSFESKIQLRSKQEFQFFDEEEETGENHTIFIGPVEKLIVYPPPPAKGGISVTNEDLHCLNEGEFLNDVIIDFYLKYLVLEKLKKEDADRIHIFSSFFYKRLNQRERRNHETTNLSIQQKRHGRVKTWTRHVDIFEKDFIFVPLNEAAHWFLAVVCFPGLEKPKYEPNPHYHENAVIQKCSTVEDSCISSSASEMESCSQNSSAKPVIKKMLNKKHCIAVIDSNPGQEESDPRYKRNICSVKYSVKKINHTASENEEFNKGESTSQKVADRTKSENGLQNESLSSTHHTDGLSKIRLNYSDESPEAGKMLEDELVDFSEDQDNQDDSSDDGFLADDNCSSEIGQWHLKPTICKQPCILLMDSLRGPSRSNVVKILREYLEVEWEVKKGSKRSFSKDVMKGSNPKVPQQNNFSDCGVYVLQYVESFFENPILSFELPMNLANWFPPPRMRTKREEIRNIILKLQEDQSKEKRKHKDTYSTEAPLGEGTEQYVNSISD

[5] = target: T5, Oxysterols receptor LXR-beta (Homo sapiens, UniProt P55055); type: functional, cell-based;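 also: agonist activity at LXR measured by a cell-based luminescence readout across a dose range, run as a counterscreen for daf-12 agonists; HEK293 cells with Gal4-LXR fusion and GAL4-driven luciferase reporter; potency for activation of Gal4-LXR reporter so compounds are agonists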
T5 sequence (P55055 whole entry): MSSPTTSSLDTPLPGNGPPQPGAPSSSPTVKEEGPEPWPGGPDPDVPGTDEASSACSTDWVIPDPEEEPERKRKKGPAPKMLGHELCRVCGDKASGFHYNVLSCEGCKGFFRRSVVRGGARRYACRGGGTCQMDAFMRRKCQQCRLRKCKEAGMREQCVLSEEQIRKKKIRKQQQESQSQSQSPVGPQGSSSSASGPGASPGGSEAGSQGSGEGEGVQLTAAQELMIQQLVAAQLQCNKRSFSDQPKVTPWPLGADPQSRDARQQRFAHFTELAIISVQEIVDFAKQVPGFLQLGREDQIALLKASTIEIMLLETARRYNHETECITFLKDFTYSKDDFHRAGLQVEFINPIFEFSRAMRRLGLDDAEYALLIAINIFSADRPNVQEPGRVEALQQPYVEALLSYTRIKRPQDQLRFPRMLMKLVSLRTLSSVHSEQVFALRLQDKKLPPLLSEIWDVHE

Caspase-3 = target: T6, Caspase-3 (Homo sapiens, UniProt P42574); type: functional;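 also: Dose-response selectivity test against caspase-3 for candidate inhibitors of sentrin-specific proteases (SENPs)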
T6 sequence (P42574 whole entry): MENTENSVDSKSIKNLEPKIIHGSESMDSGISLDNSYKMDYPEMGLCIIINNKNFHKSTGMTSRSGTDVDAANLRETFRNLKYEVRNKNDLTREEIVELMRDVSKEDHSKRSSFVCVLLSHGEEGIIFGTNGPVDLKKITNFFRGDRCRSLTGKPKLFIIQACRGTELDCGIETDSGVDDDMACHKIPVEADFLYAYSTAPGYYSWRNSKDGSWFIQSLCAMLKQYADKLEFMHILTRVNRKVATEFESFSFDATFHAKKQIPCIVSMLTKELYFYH

[6] = target: T7, Sentrin-specific protease 8 (Homo sapiens, UniProt Q96LD8); type: functional;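 also: luminescence read-out of SENP8 inhibition, dose-response confirmation following an ultra-high-throughput screen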
T7 sequence (Q96LD8 whole entry): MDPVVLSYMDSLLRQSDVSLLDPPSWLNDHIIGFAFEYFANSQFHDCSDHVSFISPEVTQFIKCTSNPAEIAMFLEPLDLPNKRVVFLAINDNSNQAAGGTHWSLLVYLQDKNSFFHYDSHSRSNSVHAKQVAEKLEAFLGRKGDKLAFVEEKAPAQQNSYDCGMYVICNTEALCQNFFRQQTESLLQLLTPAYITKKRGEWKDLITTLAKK

[7] = target: T8, Sentrin-specific protease 7 (Homo sapiens, UniProt Q9BQF6); type: functional;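 also: Luminescence-based dose-response confirmation of ultra-high-throughput screening hits, measuring inhibition of SENP7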
T8 sequence (Q9BQF6 whole entry): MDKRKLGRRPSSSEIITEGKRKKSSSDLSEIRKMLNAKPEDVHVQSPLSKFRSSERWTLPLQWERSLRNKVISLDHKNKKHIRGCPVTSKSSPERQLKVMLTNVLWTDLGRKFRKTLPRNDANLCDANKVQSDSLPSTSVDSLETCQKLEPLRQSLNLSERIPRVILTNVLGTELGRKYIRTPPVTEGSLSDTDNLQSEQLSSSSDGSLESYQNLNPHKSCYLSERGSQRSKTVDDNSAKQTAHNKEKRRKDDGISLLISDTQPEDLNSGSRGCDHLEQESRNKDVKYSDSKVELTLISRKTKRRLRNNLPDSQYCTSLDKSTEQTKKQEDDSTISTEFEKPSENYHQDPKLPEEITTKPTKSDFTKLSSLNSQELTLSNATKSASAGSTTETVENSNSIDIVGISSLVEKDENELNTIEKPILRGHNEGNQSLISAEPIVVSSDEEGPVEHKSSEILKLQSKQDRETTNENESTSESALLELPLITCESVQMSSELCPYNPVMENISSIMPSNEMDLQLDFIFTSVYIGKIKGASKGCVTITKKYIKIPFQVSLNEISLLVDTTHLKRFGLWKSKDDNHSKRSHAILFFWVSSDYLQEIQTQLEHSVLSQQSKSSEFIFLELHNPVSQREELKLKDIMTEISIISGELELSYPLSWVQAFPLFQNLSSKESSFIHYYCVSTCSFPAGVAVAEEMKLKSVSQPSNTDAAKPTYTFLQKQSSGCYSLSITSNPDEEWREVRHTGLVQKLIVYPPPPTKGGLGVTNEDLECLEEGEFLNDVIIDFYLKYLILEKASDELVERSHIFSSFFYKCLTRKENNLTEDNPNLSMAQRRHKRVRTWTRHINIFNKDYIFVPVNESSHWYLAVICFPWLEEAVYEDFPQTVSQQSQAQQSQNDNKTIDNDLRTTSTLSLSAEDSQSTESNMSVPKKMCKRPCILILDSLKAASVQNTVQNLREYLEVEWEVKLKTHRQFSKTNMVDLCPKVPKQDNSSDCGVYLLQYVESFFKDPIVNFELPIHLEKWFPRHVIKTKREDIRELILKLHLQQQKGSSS

Chain of fMet-Leu-Phe receptor (P21462 whole entry): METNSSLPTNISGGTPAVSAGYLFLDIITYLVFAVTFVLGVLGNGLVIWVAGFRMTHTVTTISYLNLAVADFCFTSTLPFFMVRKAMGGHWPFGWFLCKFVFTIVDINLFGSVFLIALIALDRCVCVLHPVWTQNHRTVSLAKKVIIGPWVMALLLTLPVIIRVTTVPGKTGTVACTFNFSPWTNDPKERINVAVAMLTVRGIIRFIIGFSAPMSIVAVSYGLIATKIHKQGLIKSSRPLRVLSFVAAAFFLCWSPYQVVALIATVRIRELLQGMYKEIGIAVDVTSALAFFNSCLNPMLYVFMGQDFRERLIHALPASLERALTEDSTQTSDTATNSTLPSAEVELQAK
Chain of Voltage-gated inwardly rectifying potassium channel KCNH2 (Q12809 whole entry): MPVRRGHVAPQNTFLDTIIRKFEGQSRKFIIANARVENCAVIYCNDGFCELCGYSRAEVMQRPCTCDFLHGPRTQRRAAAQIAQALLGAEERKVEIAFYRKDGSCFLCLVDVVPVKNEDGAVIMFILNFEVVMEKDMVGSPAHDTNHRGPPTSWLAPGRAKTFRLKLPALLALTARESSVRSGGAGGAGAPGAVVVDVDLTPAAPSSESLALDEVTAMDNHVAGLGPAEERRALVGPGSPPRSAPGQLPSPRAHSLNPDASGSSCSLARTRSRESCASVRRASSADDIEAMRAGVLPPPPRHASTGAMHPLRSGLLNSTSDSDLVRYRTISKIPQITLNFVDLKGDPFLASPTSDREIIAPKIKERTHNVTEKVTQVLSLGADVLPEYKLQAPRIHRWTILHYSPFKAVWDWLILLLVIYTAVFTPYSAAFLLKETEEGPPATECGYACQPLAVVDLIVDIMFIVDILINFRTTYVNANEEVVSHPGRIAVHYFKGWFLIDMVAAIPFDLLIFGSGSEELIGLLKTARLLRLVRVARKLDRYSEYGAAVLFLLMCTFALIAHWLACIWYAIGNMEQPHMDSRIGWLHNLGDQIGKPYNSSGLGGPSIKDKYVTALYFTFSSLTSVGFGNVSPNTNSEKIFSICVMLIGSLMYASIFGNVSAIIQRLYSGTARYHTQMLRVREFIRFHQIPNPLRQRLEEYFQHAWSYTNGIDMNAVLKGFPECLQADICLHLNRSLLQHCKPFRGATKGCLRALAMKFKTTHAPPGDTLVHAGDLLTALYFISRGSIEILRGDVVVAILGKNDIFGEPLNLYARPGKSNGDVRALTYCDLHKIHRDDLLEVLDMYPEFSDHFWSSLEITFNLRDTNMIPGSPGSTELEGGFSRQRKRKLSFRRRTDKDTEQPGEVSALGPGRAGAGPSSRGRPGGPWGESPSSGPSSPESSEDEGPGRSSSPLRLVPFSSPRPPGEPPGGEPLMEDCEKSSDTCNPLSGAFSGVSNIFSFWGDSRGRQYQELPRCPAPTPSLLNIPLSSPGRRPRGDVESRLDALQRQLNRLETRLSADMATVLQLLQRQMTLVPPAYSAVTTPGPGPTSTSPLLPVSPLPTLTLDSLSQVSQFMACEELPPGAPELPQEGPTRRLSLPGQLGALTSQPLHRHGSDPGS

Ki (fMet-Leu-Phe receptor): > 66.7 µM (inactive)
Structure (SMILES): Cc1ccc(C(=O)C2=C(O)C(=O)N(CC(C)O)C2c2ccc(N(C)C)cc2)cc1 (centres undefined)

Structure (SMILES): Oc1cc2c(cc1O)[C@H]1c3ccc(O)c(O)c3OC[C@@]1(O)C2
AC50 [1]: 22.4 µM (inconclusive)
AC50 (Caspase-7): 68.5 µM (active)
AC50 [2]: 1.53 µM (active)
IC50 (Genome polyprotein): 22.5 µM (active)
AC50 (Caspase-6): 3.95 µM (active)
IC50 [3]: 67.6 µM (inactive)
IC50 (Protein skinhead-1): > 100 µM (inactive)

Ki (fMet-Leu-Phe receptor): > 66.7 µM (inactive)
Structure (SMILES): C=CCOc1cccc(C2C(C(=O)c3ccco3)=C(O)C(=O)N2CCN2CCOCC2)c1 (centres undefined)

IC50 [4]: 18.7 µM (active)
EC50 [5]: > 67.5 µM (inactive)
IC50 (Caspase-3): 18.5 µM (active)
IC50 [7]: 5.6 µM (active)
Structure (SMILES): Cc1ccc(/C=N/N=C/c2ccc(C)s2)s1
IC50 [6]: 21.9 µM (active)

Source: ChEMBL document CHEMBL1201862, “PubChem BioAssay data set” (2004)
